# US9932637B2, “Genetic polymorphisms associated with cardiovascular disorders and drug response, methods of detection and uses thereof” (CELERA CORPORATION, priority 2003, dated 2018)
# Test system: patients with prior myocardial infarction (CARE study)
# Test: CARE: association of SNPs with pravastatin treatment in cardiovascular events prevention (logistic regression, odds ratio pravastatin vs placebo by genotype; Table 8)
# Assay type: in vivo, human
# Conditions: for Definite Nonfatal MI, n/total (%) / Fatal CHD/Definite Nonfatal MI, n/total (%): CD6 hCV25922320, All Patients; for Fatal/Nonfatal MI (def & prob), n/total (%) / MI (Fatal/Nonfatal), n/total (%) / Nonfatal MI (def & prob), n/total (%): COL11A1 hCV8400671, All Patients
# From the text: In order to identify genetic markers associated with acute coronary events (e.g. MI, stroke, unstable angina, congestive heart failure, etc.) or response to statin treatment for the prevention of coronary events, samples from the Cholesterol and Recurrent Events (CARE) study (a randomized multicentral double-blinded trial on secondary prevention of acute coronary events with pravastatin) (Sacks et al., 1991, Am. J. Cardiol. 68: 1436-1446) were genotyped. A well-documented myocardial infarction (MI) was one of the enrollment criteria for entry into the CARE study. Patients were enrolled in the CARE trial from 80 participating study centers. […] Patients were randomized to receive either 40 mg of pravastatin once daily or a matching placebo. The primary endpoint of the trial was death from coronary heart disease and the median duration of follow-up was 5.0 years (range, 4.0 to 6.2 years). […] Secondary endpoints of other related cardiovascular or metabolic disease events, and changes in clinical variables were also recorded in pravastatin-treated and placebo groups. All individuals included in the study had signed a written informed consent form and the study protocol was approved by the respective Institutional Review Boards (IRBs).
# For genotyping SNPs in CARE patient samples, DNA was extracted from blood samples using conventional DNA extraction methods such as the QIA-amp kit from Qiagen. Genotypes were obtained on an ABI PRISM® 7900HT Sequence Detection PCR system (Applied Biosystems, Foster City, Calif.) by kinetic allele-specific PCR, similar to the method described by Germer et al. (Germer S., Holland M. J., Higuchi R. 2000, Genome Res. 10: 258-266).
# Statistical analysis for association of SNPs with pravastatin treatment in cardiovascular events prevention (Table 8) was carried out using an overall logistic regression model that included an intercept, a parameter for the effect of a genotype containing two rare alleles versus a genotype containing no rare alleles, a parameter for the effect of a genotype containing one rare allele versus a genotype containing no rare alleles, a parameter for the effect of use of pravastatin versus the use of placebo, and parameters for the interaction effects between SNP genotypes and pravastatin use. The test of the overall model is a chi-square test with two degrees of freedom for analyses containing all three genotypes, and one degree of freedom for analyses containing two genotypes.
# Effect sizes were estimated through odds ratios (pravastatin group versus placebo) for carriers of each genotype (groups of 0, 1, and 2 minor allele carriers). The effect was considered to be significant if p-value for testing whether any of the interactions between SNP genotypes and pravastatin use were <0.05. […] Odds ratios less than one indicate that the specific SNP allele has a protective effect and odds ratios greater than one indicate that the specific SNP allele has an adverse effect.
# [1] = CCL11 hCV7449808, All Patients, 2 Rare Alleles, Prava, n/total 9/34
# [2] = CCL11 hCV7449808, All Patients, Fatal/Non-fatal Atherosclerotic CV Disease
# [3] = CCL11 hCV7449808, All Patients, Hosp. for Cardiovascular Disease
# [4] = CCL11 hCV7449808, All Patients, Total Cardiovascular Disease Events
# [5] = CCL11 hCV7449808, All Patients, Total Coronary Heart Disease Events
# [6] = CD6 hCV2553030, All Patients, 0 Rare Alleles, Prava arm
# [7] = CD6 hCV2553030, All Patients, 1 Rare Allele, Prava arm
# [8] = CD6 hCV2553030, All Patients, 2 Rare Alleles, Prava arm
# [9] = CHUK hCV1345898, All Patients, Hosp. for Unstable Angina
# [10] = CHUK hCV1345898, All Patients, Non-fatal MI (def & prob)
compound,measurement,setting,value
CC[C@H](C)C(=O)O[C@H]1C[C@H](O)C=C2C=C[C@H](C)[C@H](CC[C@@H](O)C[C@@H](O)CC(=O)O)[C@H]21 [pravastatin],"Total Coronary Heart Disease Events, n/total (%)","CCL11 hCV7449808, All Patients, 2 Rare Alleles, Prava, n/total 4/34",(11.8%)
same,"Fatal/Non-fatal Atherosclerotic CV Disease, n/total (%)","CCL11 hCV7449808, All Patients, 2 Rare Alleles, Prava, n/total 7/34",(20.6%)
same,"Hosp. for Cardiovascular Disease, n/total (%)",[1],(26.5%)
same,"Total Cardiovascular Disease Events, n/total (%)",[1],(26.5%)
same,"Prava vs. Placebo Odds Ratio, 0 Rare Alleles",[2],0.80
same,"Prava vs. Placebo Odds Ratio, 1 Rare Alleles",[2],0.82
same,"Prava vs. Placebo Odds Ratio, 2 Rare Alleles",[2],0.21
same,"Prava vs. Placebo Odds Ratio, 0 Rare Alleles",[3],0.76
same,"Prava vs. Placebo Odds Ratio, 1 Rare Alleles",[3],0.91
same,"Prava vs. Placebo Odds Ratio, 2 Rare Alleles",[3],0.16
same,"Prava vs. Placebo Odds Ratio, 0 Rare Alleles",[4],0.77
same,"Prava vs. Placebo Odds Ratio, 1 Rare Alleles",[4],0.88
same,"Prava vs. Placebo Odds Ratio, 2 Rare Alleles",[4],0.14
same,"Prava vs. Placebo Odds Ratio, 0 Rare Alleles",[5],0.80
same,"Prava vs. Placebo Odds Ratio, 1 Rare Alleles",[5],0.84
same,"Prava vs. Placebo Odds Ratio, 2 Rare Alleles",[5],0.16
same,"Hosp. for Cardiovascular Disease, n/total (%)",[6],(41.5%)
same,"Total Cardiovascular Disease Events, n/total (%)",[6],(43.2%)
same,"Hosp. for Cardiovascular Disease, n/total (%)",[7],(39.9%)
same,"Total Cardiovascular Disease Events, n/total (%)",[7],(40.3%)
same,"Hosp. for Cardiovascular Disease, n/total (%)",[8],(31.3%)
same,"Total Cardiovascular Disease Events, n/total (%)",[8],(33.0%)
same,Odds ratio pravastatin vs placebo,"CD6 hCV2553030, All Patients, Hosp. for Cardiovascular Disease, 0 rare alleles",0.81
same,Odds ratio pravastatin vs placebo,"CD6 hCV2553030, All Patients, Hosp. for Cardiovascular Disease, 1 rare allele",0.78
same,Odds ratio pravastatin vs placebo,"CD6 hCV2553030, All Patients, Hosp. for Cardiovascular Disease, 2 rare alleles",0.37
same,Odds ratio pravastatin vs placebo,"CD6 hCV2553030, All Patients, Total Cardiovascular Disease Events, 0 rare alleles",0.83
same,Odds ratio pravastatin vs placebo,"CD6 hCV2553030, All Patients, Total Cardiovascular Disease Events, 1 rare allele",0.74
same,Odds ratio pravastatin vs placebo,"CD6 hCV2553030, All Patients, Total Cardiovascular Disease Events, 2 rare alleles",0.38
same,"Definite Nonfatal MI, n/total (%)","0 Rare Alleles, Prava arm",(5.7%)
same,"Fatal CHD/Definite Nonfatal MI, n/total (%)","0 Rare Alleles, Prava arm",(7.7%)
same,"Definite Nonfatal MI, n/total (%)","1 Rare Allele, Prava arm",(9.2%)
same,"Fatal CHD/Definite Nonfatal MI, n/total (%)","1 Rare Allele, Prava arm",(12.3%)
same,"Definite Nonfatal MI, n/total (%)","2 Rare Alleles, Prava arm",(4.8%)
same,"Fatal CHD/Definite Nonfatal MI, n/total (%)","2 Rare Alleles, Prava arm",(9.7%)
same,Odds ratio pravastatin vs placebo,"CD6 hCV25922320, All Patients, Definite Nonfatal MI, 0 rare alleles",0.52
same,Odds ratio pravastatin vs placebo,"CD6 hCV25922320, All Patients, Definite Nonfatal MI, 1 rare allele",1.12
same,Odds ratio pravastatin vs placebo,"CD6 hCV25922320, All Patients, Definite Nonfatal MI, 2 rare alleles",0.63
same,Odds ratio pravastatin vs placebo,"CD6 hCV25922320, All Patients, Fatal CHD/Definite Nonfatal MI, 2 rare alleles",0.92
same,"Non-fatal MI (def & prob), n/total (%)","CHUK hCV1345898, All Patients, 0 Rare Alleles, Prava, n/total 47/413",(11.4%)
same,"Hosp. for Unstable Angina, n/total (%)","CHUK hCV1345898, All Patients, 0 Rare Alleles, Prava, n/total 68/413",(16.5%)
same,"Non-fatal MI (def & prob), n/total (%)","CHUK hCV1345898, All Patients, 1 Rare Allele, Prava, n/total 69/734",(9.4%)
same,"Hosp. for Unstable Angina, n/total (%)","CHUK hCV1345898, All Patients, 1 Rare Allele, Prava, n/total 110/734",(15.0%)
same,"Non-fatal MI (def & prob), n/total (%)","CHUK hCV1345898, All Patients, 2 Rare Alleles, Prava, n/total 17/354",(4.8%)
same,"Hosp. for Unstable Angina, n/total (%)","CHUK hCV1345898, All Patients, 2 Rare Alleles, Prava, n/total 51/354",(14.4%)
same,"Prava vs. Placebo Odds Ratio, 0 Rare Alleles",[9],1.38
same,"Prava vs. Placebo Odds Ratio, 1 Rare Alleles",[9],0.76
same,"Prava vs. Placebo Odds Ratio, 2 Rare Alleles",[9],0.59
same,"Prava vs. Placebo Odds Ratio, 0 Rare Alleles",[10],0.86
same,"Prava vs. Placebo Odds Ratio, 1 Rare Alleles",[10],0.77
same,"Prava vs. Placebo Odds Ratio, 2 Rare Alleles",[10],0.34
same,"Fatal/Nonfatal MI (def & prob), n/total (%)","0 Rare Alleles, Prava arm",(10.6%)
same,"MI (Fatal/Nonfatal), n/total (%)","0 Rare Alleles, Prava arm",(10.7%)
same,"Nonfatal MI (def & prob), n/total (%)","0 Rare Alleles, Prava arm",(9.6%)
same,"Fatal/Nonfatal MI (def & prob), n/total (%)","1 Rare Allele, Prava arm",(8.2%)
same,"MI (Fatal/Nonfatal), n/total (%)","1 Rare Allele, Prava arm",(8.6%)
same,"Nonfatal MI (def & prob), n/total (%)","1 Rare Allele, Prava arm",(7.7%)
same,"Fatal/Nonfatal MI (def & prob), n/total (%)","2 Rare Alleles, Prava arm",(4.1%)
same,"MI (Fatal/Nonfatal), n/total (%)","2 Rare Alleles, Prava arm",(4.1%)
